Measured values from patent US9073881B2, “Benzoic acid derivatives” (HOFFMANN-LA ROCHE INC., priority 2011, dated 2015).

Target: Human eIF4E (Homo sapiens (Human), UniProt P06730)
Test: Human eIF4E/4G binding assay (time-resolved fluorescence, HH-eIF4E and biotin-labeled 4G2 peptide)
Conditions: inhibition of binding of His-tagged human eIF4E (aa 28-217) to biotin-labeled 4G2 peptide

Human eIF4E, sequence (P06730 28-217): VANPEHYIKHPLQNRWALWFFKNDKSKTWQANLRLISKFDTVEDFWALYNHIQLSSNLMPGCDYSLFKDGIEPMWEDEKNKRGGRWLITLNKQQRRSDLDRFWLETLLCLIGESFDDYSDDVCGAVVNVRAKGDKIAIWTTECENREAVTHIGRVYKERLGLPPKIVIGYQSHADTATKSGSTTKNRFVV

SMILES | IC50
CC(=O)c1cccc(-c2ccc(-c3nc(-c4ccc(Cl)c(Cl)c4)cs3)cc2C(=O)O)c1 [Example 116, 3′-Acetyl-4-[4-(3,4-dichloro-phenyl)-thiazol-2-yl]-biphenyl-2-carboxylic acid] | 7.7 µM
O=C(O)c1cc(-c2nc(-c3ccc(Br)s3)cs2)ccc1-c1ccccc1[N+](=O)[O-] [Example 25, 4-[4-(5-Bromo-thiophen-2-yl)-thiazol-2-yl]-2′-nitro-biphenyl-2-carboxylic acid] | 4.4 µM
O=C(O)c1cc(-c2nc(-c3ccc(OC(F)F)cc3)cs2)ccc1-c1ccccc1[N+](=O)[O-] [Example 3, 4-[4-(4-Difluoromethoxy-phenyl)-thiazol-2-yl]-2′-nitro-biphenyl-2-carboxylic acid] | 9.9 µM
O=C(O)c1cc(-c2nc(-c3ccc(Cl)c(Cl)c3)cs2)ccc1-c1ccc(Cl)cc1 [Example 147, 4′-Chloro-4-[4-(3,4-dichloro-phenyl)-thiazol-2-yl]-biphenyl-2-carboxylic acid] | 1.7 µM
CC(=O)c1ccccc1-c1ccc(-c2nc(-c3ccc(Cl)c(Cl)c3)cs2)cc1C(=O)O [Example 117, 2′-Acetyl-4-[4-(3,4-dichloro-phenyl)-thiazol-2-yl]-biphenyl-2-carboxylic acid] | 7.7 µM
O=C(O)c1cc(-c2nc(-c3ccc(Cl)c(Cl)c3)cs2)ccc1-c1cnc(O)nc1 [Example 84, 5-[4-(3,4-Dichloro-phenyl)-thiazol-2-yl]-2-(2-hydroxy-pyrimidin-5-yl)-benzoic acid] | 1.2 µM
O=C(NCc1ccncc1)c1ccc(-c2ccc(-c3nc(-c4ccc(Cl)c(Cl)c4)cs3)cc2C(=O)O)cc1 [Example 69, 4-[4-(3,4-Dichloro-phenyl)-thiazol-2-yl]-4′-[(pyridin-4-ylmethyl)-carbamoyl]-biphenyl-2-carboxylic acid] | 7.1 µM
COc1ccccc1-c1ccc(-c2nc(-c3ccc(Cl)c(Cl)c3)cs2)cc1C(=O)O [Example 92, 4-[4-(3,4-Dichloro-phenyl)-thiazol-2-yl]-2′-methoxy-biphenyl-2-carboxylic acid] | 4.8 µM
Cc1cc(-c2csc(-c3ccc(-c4ccccc4[N+](=O)[O-])c(C(=O)O)c3)n2)ccc1Cl [Example 9, 4-[4-(4-Chloro-3-methyl-phenyl)-thiazol-2-yl]-2′-nitro-biphenyl-2-carboxylic acid] | 5.9 µM
O=C(NC1CCOCC1)c1ccc(-c2ccc(-c3nc(-c4ccc(Cl)c(Cl)c4)cs3)cc2C(=O)O)cc1 [Example 63, 4-[4-(3,4-Dichloro-phenyl)-thiazol-2-yl]-4′-(tetrahydro-pyran-4-ylcarbamoyl)-biphenyl-2-carboxylic acid] | 5.7 µM
NC(=O)c1ncccc1-c1ccc(-c2nc(-c3ccc(Cl)c(Cl)c3)cs2)cc1C(=O)O [Example 77, 2-(2-Carbamoyl-pyridin-3-yl)-5-[4-(3,4-dichloro-phenyl)-thiazol-2-yl]-benzoic acid] | 1.3 µM
COc1ccc(-c2ccc(-c3nc(-c4ccc(Cl)c(Cl)c4)cs3)cc2C(=O)O)c(Cl)c1 [Example 94, 2′-Chloro-4-[4-(3,4-dichloro-phenyl)-thiazol-2-yl]-4′-methoxy-biphenyl-2-carboxylic acid] | 1.5 µM
CN1CCC(NC(=O)c2ccc(-c3ccc(-c4nc(-c5ccc(Cl)c(Cl)c5)cs4)cc3C(=O)O)cc2)CC1 [Example 51, 4-[4-(3,4-Dichloro-phenyl)-thiazol-2-yl]-4′-(1-methyl-piperidin-4-ylcarbamoyl)-biphenyl-2-carboxylic acid] | > 80 µM
O=C(NCc1cccc(C(F)(F)F)c1)c1ccc(-c2ccc(-c3nc(-c4ccc(Cl)c(Cl)c4)cs3)cc2C(=O)O)cc1 [Example 71, 4-[4-(3,4-Dichloro-phenyl)-thiazol-2-yl]-4′-(3-trifluoromethyl-benzylcarbamoyl)-biphenyl-2-carboxylic acid] | 3.2 µM
O=C(O)c1cc(-c2nc(-c3ccc(Cl)c(Cl)c3)cs2)ccc1-c1cccc(C(F)(F)F)c1Cl [Example 126, 2′-Chloro-4-[4-(3,4-dichloro-phenyl)-thiazol-2-yl]-3′-trifluoromethyl-biphenyl-2-carboxylic acid] | 2.8 µM
O=C(O)c1cc(-c2nc(-c3ccc(Cl)c(Cl)c3)cs2)ccc1-c1ccccc1F [Example 137, 4-[4-(3,4-Dichloro-phenyl)-thiazol-2-yl]-2′-fluoro-biphenyl-2-carboxylic acid] | 3.6 µM
O=C(O)c1cc(-c2nc(-c3c(F)cccc3F)cs2)ccc1-c1ccccc1[N+](=O)[O-] [Example 20, 4-[4-(2,6-Difluoro-phenyl)-thiazol-2-yl]-2′-nitro-biphenyl-2-carboxylic acid] | > 80 µM
N#Cc1ccc(Cl)cc1-c1ccc(-c2nc(-c3ccc(Cl)c(Cl)c3)cs2)cc1C(=O)O [Example 110, 5′-Chloro-2′-cyano-4-[4-(3,4-dichloro-phenyl)-thiazol-2-yl]-biphenyl-2-carboxylic acid] | 1.7 µM
N#Cc1cc(-c2ccc(-c3nc(-c4ccc(Cl)c(Cl)c4)cs3)cc2C(=O)O)ccc1Cl [Example 115, 4′-Chloro-3′-cyano-4-[4-(3,4-dichloro-phenyl)-thiazol-2-yl]-biphenyl-2-carboxylic acid] | 1.9 µM
Cc1ccccc1-c1ccc(-c2nc(-c3ccc(Cl)c(Cl)c3)cs2)cc1C(=O)O [Example 141, 4-[4-(3,4-Dichloro-phenyl)-thiazol-2-yl]-2′-methyl-biphenyl-2-carboxylic acid] | 5.9 µM
